Assays:
Type in all cases: in vivo
[1] = system: Guinea Pig Chronic Obstructive Pulmonary Disease (COPD) Model; experiment: Airway resistance (sRaw) in guinea pig COPD model (cigarette smoke exposure); conditions: 10 mg/kg/day oral; 1 week of cigarette smoke exposure; mean ± SEM of 8 animals
Protocol: (§1) An evaluation was carried out as follows according to a report of Kosuke MORIZUMI, Junichi FUCHIGAMI et al., 2002, The 75th Annual Meeting of the Japanese Pharmacological Society (2002) Abstract No. P-259, “Study of a chronic obstructive pulmonary disease-Effects of theophylline on respiratory function and lung function of guinea pigs in an exposure of cigarette smoke.”
(§2) Male Hartley strain guinea pigs (purchased from Japan SLC, Inc.) were taken in a cigarette exposure holder (RMH-TUBES, manufactured by Muenster Ltd.) to secure them to an exposure chamber (Flow-past type nose-only inhalation chamber, manufactured by Muenster Ltd.), and allowed to inhale cigarette smoke (Hi-Lite, manufactured by Japan Tobacco Inc.) for 60 minutes per day for 5 days in a week, totally 4 weeks using a smoking exposure equipment (Hamburg II, manufactured by Borgwaldt Technik), while the exposure was carried out for 4 days in the 4th week. • (2) Drug Administrations
(§3) Each 0.5% MC suspension of a test drug was orally administered daily in 5 ml/weight (kg) once a day for 25 days from the first day of the exposure. To a sham-exposure group and a control group was orally administered a 0.5% MC suspension in a similar manner. Any oral administrations were carried out 0.5 to 1 hours before exposures on a cigarette-smoke-exposure day or after measurements when measuring respiratory functions. A drug was not administered on the day for measurement of respiratory functions after finishing the 4th week of the exposure. • (3) Measurements of Airway Resistance
Specific airway resistances (sRaw) in guinea pigs were measured during awakening by double-flow plethysmography using general respiratory function analysis system (PULMOS-I, manufactured by M•I•P•S Corp.). Measurements were carried out before the exposure and on the day after finishing the 1st, 2nd, 3rd and 4th weeks of the exposure. Each 100 breathings of respiratory functions were individually measured, and the average values were obtained as measured values. A rate of change of airway resistances was calculated by the following equation. Rate of change of each measured week (%)=100×(a measured value on each measured date−a measured value before starting exposures of cigarette smoke)/a measured value before starting exposures of cigarette smoke

[2] = system: Guinea Pig Chronic Obstructive Pulmonary Disease (COPD) Model; experiment: Histological investigations of lung in guinea pig COPD model; conditions: 10 mg/kg/day for 25 days; 8 animals
Protocol: as §1, §2, §3
After collection of BALF, trachea and lung were isolated. The ligation site of the left lung was opened, injected neutral formalin buffer into trachea, bronchi and lung at the pressure of 20 cm H2O via cannula fixed on the side of the lung, and the lung tissue was extended to be fixed. According to a conventional method, tissue section samples were produced using posterior lobe of the left lung and hematoxylin-eosin (HE) stain was carried out. Any other lung tissues were stored in neutral formalin buffers. Drug efficacies of the produced tissue samples were evaluated by scoring tissue changes under the microscope. The criteria of scores were shown as follows: −: none, ±: minimal, +: mild, ++: moderate, +++: severe. Each quantification was calculated as 0, 1, 2, 3, 4.

[3] = system: Guinea Pig Chronic Obstructive Pulmonary Disease (COPD) Model; experiment: Lung functions (FRC, RV) in guinea pig COPD model; conditions: 10 mg/kg/day oral; after 4th week of exposure; mean ± SEM of 8 animals
Protocol: as §1, §2, §3
After measuring airway resistances in the 4th week, animals were cut open their tracheas under urethane-anesthetizing ([…], i.p.), cannulated on the side of lung, fixed by ligation, and measured residual volumes (RV) and functional residual capacities (FRC) by lung functions measuring system (Biosystem for maneuver, manufactured by Buxco Electronics).

[4] = system: Guinea Pig Chronic Obstructive Pulmonary Disease (COPD) Model; experiment: Inflammatory cells in bronchoalveolar fluid in guinea pig COPD model; conditions: 10 mg/kg/day oral; mean ± SEM of 8 animals
Protocol: as §1, §2, §3
After measuring lung functions, animals were exsanguinated to death and opened the thorax, ligated the left bronchial bifurcation, and then injected saline (2.5 mL) into the right lung and aspirated the same via fixed cannula on measuring lung functions repeatedly in twice (totally 5 mL), and the recovery solution was obtained as a bronchoalveolar lavage fluid (BALF). BALF was centrifuged (230×g, 4° C., for 10 minutes) to give cell pellets. The pellets were suspended in saline (0.5 mL), and to a part of the suspension was added Turk solution (manufactured by Wako Pure Chemical Industries, Ltd.) so as to dilute 10 to 20 folds. Leukocyte numbers per 0.1 μL were measured by a blood cell counting chamber and leukocyte numbers per 1 μL were calculated. Cell suspensions were prepared again, smears were prepared using about 2000 to 3000 total cell numbers, May-Grunwald-Giemsa stain was carried out, leukocyte numbers were counted under the microscope, a ratio of each leukocyte number to total leukocyte number was obtained, and each cell number per 1 μL was calculated based on the ratio. Results are shown in each cell number per 1 μL.

Cn1c(=O)c2[nH]cnc2n(C)c1=O [theophylline, Theophylline, reference compound]
Specific airway resistance (sRaw) % increase from pre value [1]: 15.02 ± 6.73%
Number of animals with grade + (mild): A. Hyperplasia, epithelial cell, bronchus [2]: 0
Number of animals with grade + (mild): B. Cellular exudation, neutrophil/eosinophil, lumen, bronchiole [2]: 0
Number of animals with grade + (mild): C. Thickening, alveolar wall [2]: 1
Number of animals with grade + (mild): D. Accumulation, foamy/macrophage-like cell, alveolus [2]: 1
Number of animals with grade + (mild): E. Cellular infiltration, neutrophil, alveolus [2]: 0
Number of animals with grade ++ (moderate): A. Hyperplasia, epithelial cell, bronchus [2]: 0
Number of animals with grade ++ (moderate): B. Cellular exudation, neutrophil/eosinophil, lumen, bronchiole [2]: 0
Number of animals with grade ++ (moderate): C. Thickening, alveolar wall [2]: 0
Number of animals with grade ++ (moderate): D. Accumulation, foamy/macrophage-like cell, alveolus [2]: 0
Number of animals with grade ++ (moderate): E. Cellular infiltration, neutrophil, alveolus [2]: 0
Number of animals with grade +++ (severe): A. Hyperplasia, epithelial cell, bronchus [2]: 0
Number of animals with grade +++ (severe): B. Cellular exudation, neutrophil/eosinophil, lumen, bronchiole [2]: 0
Number of animals with grade +++ (severe): C. Thickening, alveolar wall [2]: 0
Number of animals with grade +++ (severe): D. Accumulation, foamy/macrophage-like cell, alveolus [2]: 0
Number of animals with grade +++ (severe): E. Cellular infiltration, neutrophil, alveolus [2]: 0
Number of animals with grade ± (minimal): A. Hyperplasia, epithelial cell, bronchus [2]: 1
Number of animals with grade ± (minimal): B. Cellular exudation, neutrophil/eosinophil, lumen, bronchiole [2]: 0
Number of animals with grade ± (minimal): C. Thickening, alveolar wall [2]: 0
Number of animals with grade ± (minimal): D. Accumulation, foamy/macrophage-like cell, alveolus [2]: 1
Number of animals with grade ± (minimal): E. Cellular infiltration, neutrophil, alveolus [2]: 1
Number of animals with grade − (none): A. Hyperplasia, epithelial cell, bronchus [2]: 7
Number of animals with grade − (none): B. Cellular exudation, neutrophil/eosinophil, lumen, bronchiole [2]: 8
Number of animals with grade − (none): C. Thickening, alveolar wall [2]: 7
Number of animals with grade − (none): D. Accumulation, foamy/macrophage-like cell, alveolus [2]: 6
Number of animals with grade − (none): E. Cellular infiltration, neutrophil, alveolus [2]: 7
Functional residual capacity (FRC) [3]: 6.916 ± 0.234 mL
Residual volume (RV) [3]: 1.962 ± 0.417 mL
Cell number in BALF, Macrophage [4]: 2068 ± 362 cells/μL
Cell number in BALF, Neutrophil [4]: 1072 ± 322 ^NS cells/μL
Cell number in BALF, Total [4]: 3578 ± 583 cells/μL

Reference: patent US8012971B2, “Therapeutic agent for chronic obstructive pulmonary disease” (Dainippon Sumitomo Pharma Co., Ltd., priority 2005, dated 2011)
